Experimental data from PubChem BioAssay AID256 (DTP/NCI, 2004).
Values joined by “and” are separate entries in the source; they are usually repeats but may differ in a detail not shown here. Equal entries are not always repeated. Inconclusive results and toxic doses are left out. How the source made its calls: active means survival T/C of 150% or more; inactive means T/C below 125% in these data.

Test system: CD2F1 mice, L1210 leukemia ip, survival T/C
Test: NCI In Vivo Anticancer Drug Screen. Data for tumor model L1210 Leukemia (intraperitoneal) in CD2F1 (CDF1) mice
Conditions: higher = longer survival
Method in brief: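 Transplantable tumor in mice; compound-treated vs vehicle-treated groups. Read-out = treated/control ratio of the measured endpoint.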

[1] = endpoint: mean survival time, dose: 100.0 mg/kg/injection, schedule: Q04DX002 (ip), vehicle: saline with Tween-80
[2] = endpoint: mean survival time, dose: 200.0 mg/kg/injection, schedule: Q04DX002 (ip), vehicle: saline with Tween-80
[3] = endpoint: mean survival time, dose: 400.0 mg/kg/injection, schedule: Q04DX002 (ip), vehicle: saline with Tween-80
[4] = endpoint: mean survival time, dose: 100.0 mg/kg/injection, schedule: Q01DX001 (ip), vehicle: saline with Tween-80
[5] = endpoint: mean survival time, dose: 200.0 mg/kg/injection, schedule: Q01DX001 (ip), vehicle: saline with Tween-80
[6] = endpoint: mean survival time, dose: 400.0 mg/kg/injection, schedule: Q01DX001 (ip), vehicle: saline with Tween-80
[7] = endpoint: mean survival time, dose: 50.0 mg/kg/injection, schedule: Q04DX002 (ip), vehicle: saline with Tween-80
[8] = endpoint: mean survival time, dose: 100.0 mg/kg/injection, schedule: Q01DX009 (ip), vehicle: saline with Tween-80
[9] = endpoint: mean survival time, dose: 100.0 mg/kg/injection, schedule: Q04DX003 (ip), vehicle: saline with Tween-80
[10] = endpoint: mean survival time, dose: 200.0 mg/kg/injection, schedule: Q01DX009 (ip), vehicle: saline with Tween-80
[11] = endpoint: mean survival time, dose: 200.0 mg/kg/injection, schedule: Q04DX003 (ip), vehicle: saline with Tween-80
[12] = endpoint: mean survival time, dose: 400.0 mg/kg/injection, schedule: Q01DX009 (ip), vehicle: saline with Tween-80
[13] = endpoint: mean survival time, dose: 400.0 mg/kg/injection, schedule: Q04DX003 (ip), vehicle: saline with Tween-80
[14] = endpoint: mean survival time, dose: 12.5 mg/kg/injection, schedule: Q01DX009 (ip), vehicle: saline
[15] = endpoint: mean survival time, dose: 12.5 mg/kg/injection, schedule: Q04DX003 (ip), vehicle: saline
[16] = endpoint: mean survival time, dose: 25.0 mg/kg/injection, schedule: Q01DX009 (ip), vehicle: saline
[17] = endpoint: mean survival time, dose: 25.0 mg/kg/injection, schedule: Q04DX003 (ip), vehicle: saline
[18] = endpoint: mean survival time, dose: 50.0 mg/kg/injection, schedule: Q01DX009 (ip), vehicle: saline
[19] = endpoint: mean survival time, dose: 50.0 mg/kg/injection, schedule: Q04DX003 (ip), vehicle: saline with Tween-80

Measured: T/C

CC[N-]c1nncs1.CC[N-]c1nncs1.CC[N-]c1nncs1.CC[N-]c1nncs1.[Cl][Rh][Cl]
inactive: endpoint: mean survival time, dose: 3.13 mg/kg/injection, schedule: Q04DX003 (ip), vehicle: distilled water + Tween-80 104 % of control | endpoint: mean survival time, dose: 6.25 mg/kg/injection, schedule: Q04DX003 (ip), vehicle: distilled water + Tween-80 98 % of control | endpoint: mean survival time, dose: 12.5 mg/kg/injection, schedule: Q04DX003 (ip), vehicle: distilled water + Tween-80 96 % of control | endpoint: mean survival time, dose: 25.0 mg/kg/injection, schedule: Q04DX003 (ip), vehicle: distilled water + Tween-80 90 % of control | endpoint: mean survival time, dose: 50.0 mg/kg/injection, schedule: Q04DX003 (ip), vehicle: distilled water + Tween-80 98 % of control

CN(C)/C=C\C(=O)O
inactive: [1] 102 % of control | [2] 102 % of control | [3] 98 % of control

CCOC(=O)/C(C#N)=N/Nc1ccc(Cl)cc1
inactive: [1] 108 % of control | [2] 100 % of control | [3] 92 % of control

Cc1cccc(/C=C/c2cccc[n+]2[O-])[n+]1[O-]
inactive: endpoint: mean survival time, dose: 100.0 mg/kg/injection, schedule: Q04DX003 (ip), vehicle: saline 103 % of control | endpoint: mean survival time, dose: 200.0 mg/kg/injection, schedule: Q04DX003 (ip), vehicle: saline 96 % of control | endpoint: mean survival time, dose: 400.0 mg/kg/injection, schedule: Q04DX003 (ip), vehicle: saline 96 % of control

C=C(Br)CNC(=O)C(O)(c1ccccc1)c1ccccc1
inactive: [4] 103 % of control | [5] 87 % of control | [6] 89 % of control

COc1cc(NC(=O)Nc2ccccc2C)c(OC)cc1Cl
inactive: [1] 90 % of control | [2] 90 % of control | [3] 86 % of control

CC(=O)NC1(C(=O)O)SCCCS1
inactive: [7] 92 % of control | [1] 100 % of control | [3] 89 % of control

C1=CC(=P(c2ccccc2)(c2ccccc2)c2ccccc2)C=C1
inactive: [8] 98 % of control | [9] 94 % of control | [10] 100 % of control | [11] 95 % of control | endpoint: mean survival time, dose: 240.0 mg/kg/injection, schedule: Q01DX015 (ip), vehicle: saline 87 % of control | [12] 94 % of control | [13] 94 % of control | endpoint: mean survival time, dose: 480.0 mg/kg/injection, schedule: Q01DX015 (ip), vehicle: saline 87 % of control | endpoint: mean survival time, dose: 960.0 mg/kg/injection, schedule: Q01DX015 (ip), vehicle: saline 92 % of control

CCCCC(CC)COCC1CO1 (centres undefined)
inactive: endpoint: mean survival time, dose: 50.0 mg/kg/injection, schedule: Q01DX009 (ip), vehicle: Klucel (hydroxypropylcellulose) (HPC) 102 % of control | endpoint: mean survival time, dose: 100.0 mg/kg/injection, schedule: Q01DX009 (ip), vehicle: Klucel (hydroxypropylcellulose) (HPC) 96 % of control | endpoint: mean survival time, dose: 200.0 mg/kg/injection, schedule: Q01DX009 (ip), vehicle: Klucel (hydroxypropylcellulose) (HPC) 100 % of control

C[As](C)[Se]C1OC(CO)C(O)C(O)C1O (centres undefined)
inactive: [14] 103 % of control | [15] 94 % of control | [16] 100 % of control | [17] 97 % of control | [18] 102 % of control | endpoint: mean survival time, dose: 50.0 mg/kg/injection, schedule: Q04DX003 (ip), vehicle: saline 100 % of control

COc1cc(/C=N\N=C\c2ccc(O)c(OC)c2)ccc1O
inactive: [8] 98 % of control | [10] 96 % of control

C=C1C(=O)OC2/C=C(\C)CC(O)/C=C(/CO)CC(OC(=O)/C(C)=C/C)C12 (centres undefined)
inactive: endpoint: median survival time, dose: 15.0 mg/kg/injection, schedule: Q01DX009 (ip), vehicle: saline 103 % of control | endpoint: median survival time, dose: 30.0 mg/kg/injection, schedule: Q01DX009 (ip), vehicle: saline 108 % of control | endpoint: median survival time, dose: 60.0 mg/kg/injection, schedule: Q01DX009 (ip), vehicle: saline 105 % of control | endpoint: median survival time, dose: 120.0 mg/kg/injection, schedule: Q01DX009 (ip), vehicle: saline 95 % of control

COc1c(OC(C)=O)ccc(/C=C2\COC(C)=N2)c1[N+](=O)[O-]
inactive: [9] 96 % of control | [11] 102 % of control | [13] 92 % of control

CC(O)c1ccc[n+](CCc2cn(C)c3ccccc23)c1 (centres undefined)
inactive: endpoint: mean survival time, dose: 6.25 mg/kg/injection, schedule: Q01DX009 (ip), vehicle: saline 97 % of control | endpoint: mean survival time, dose: 6.25 mg/kg/injection, schedule: Q04DX003 (ip), vehicle: saline 94 % of control | [14] 96 % of control | [15] 92 % of control | [16] 105 % of control | [17] 92 % of control

CN(C)c1ccc(/C=C/c2nc(N)nc(N)c2[N+](=O)[O-])cc1
inactive: endpoint: mean survival time, dose: 25.0 mg/kg/injection, schedule: Q01DX009 (ip), vehicle: water 98 % of control | endpoint: mean survival time, dose: 50.0 mg/kg/injection, schedule: Q01DX009 (ip), vehicle: water 97 % of control | endpoint: mean survival time, dose: 100.0 mg/kg/injection, schedule: Q01DX009 (ip), vehicle: water 97 % of control | endpoint: mean survival time, dose: 200.0 mg/kg/injection, schedule: Q01DX009 (ip), vehicle: water 92 % of control | endpoint: mean survival time, dose: 400.0 mg/kg/injection, schedule: Q01DX009 (ip), vehicle: water 90 % of control

O=C(Oc1ccc(=O)[nH]n1)c1ccccc1
inactive: endpoint: mean survival time, dose: 12.5 mg/kg/injection, schedule: Q04DX002 (ip), vehicle: saline with Tween-80 98 % of control | endpoint: mean survival time, dose: 25.0 mg/kg/injection, schedule: Q04DX002 (ip), vehicle: saline with Tween-80 94 % of control | [7] 90 % of control and 94 % of control | [2] 87 % of control

CC(C)c1ccc(N=Nc2ccc(C(C)C)cc2)cc1
inactive: endpoint: mean survival time, dose: 100.0 mg/kg/injection, schedule: Q01DX001 (ip), vehicle: saline 101 % of control | endpoint: mean survival time, dose: 200.0 mg/kg/injection, schedule: Q01DX001 (ip), vehicle: saline 97 % of control | endpoint: mean survival time, dose: 400.0 mg/kg/injection, schedule: Q01DX001 (ip), vehicle: saline 93 % of control

O=C1c2[nH]c3ccccc3c2CC1N1C(=O)c2ccccc2C1=O (centres undefined)
inactive: [9] 87 % of control | [11] 93 % of control | [13] 91 % of control

Cc1c(Cl)c(Cl)c(Cl)c(I)c1Cl
inactive: [7] 96 % of control | [4] 97 % of control | [1] 93 % of control | [5] 102 % of control | [2] 93 % of control | [6] 97 % of control

CC1=CCCN(CCc2c[nH]c3ccccc23)C1
inactive: [19] 97 % of control | [4] 90 % of control | [9] 101 % of control | [5] 90 % of control

Nc1cc(=O)c2cn[nH]c2[nH]1
inactive: endpoint: mean survival time, dose: 12.5 mg/kg/injection, schedule: Q01DX005 (ip), vehicle: other 98 % of control | endpoint: mean survival time, dose: 25.0 mg/kg/injection, schedule: Q01DX005 (ip), vehicle: other 102 % of control | endpoint: mean survival time, dose: 50.0 mg/kg/injection, schedule: Q01DX005 (ip), vehicle: other 102 % of control | endpoint: mean survival time, dose: 100.0 mg/kg/injection, schedule: Q01DX005 (ip), vehicle: other 95 % of control

Cc1cc(Cl)ccc1[NH-].Cc1cc(Cl)ccc1[NH-].[Cl][Pt+2][Cl]
inactive: endpoint: mean survival time, dose: 25.0 mg/kg/injection, schedule: Q04DX003 (ip), vehicle: saline with Tween-80 100 % of control | [19] 94 % of control | [9] 94 % of control | [11] 94 % of control | [13] 97 % of control

COc1cc(CNCc2ccccc2)ccc1O
inactive: endpoint: mean survival time, dose: 75.0 mg/kg/injection, schedule: Q01DX001 (ip), vehicle: other 90 % of control | endpoint: mean survival time, dose: 150.0 mg/kg/injection, schedule: Q01DX001 (ip), vehicle: other 93 % of control | endpoint: mean survival time, dose: 300.0 mg/kg/injection, schedule: Q01DX001 (ip), vehicle: other 95 % of control

O=C(O)/C=C/c1ccc(Cl)cc1Cl
inactive: [9] 95 % of control | [11] 95 % of control | [13] 86 % of control

OCC(O)C(O)C(O)C(/C=N/Nc1ccccc1)=N/Nc1ccccc1 (centres undefined)
inactive: endpoint: mean survival time, dose: 75.0 mg/kg/injection, schedule: Q01DX001 (ip), vehicle: saline 95 % of control | endpoint: mean survival time, dose: 150.0 mg/kg/injection, schedule: Q01DX001 (ip), vehicle: saline 95 % of control | endpoint: mean survival time, dose: 300.0 mg/kg/injection, schedule: Q01DX001 (ip), vehicle: saline 95 % of control

CCOC(=O)C1CC(C(=O)OCC)C(=O)C1=O (centres undefined)
inactive: [8] 105 % of control | [10] 103 % of control | [12] 97 % of control

Cc1cc(-c2ccc(N=Nc3c(N)ccc4cc(S(=O)(=O)O)ccc34)c(C)c2)ccc1N=Nc1c(N)ccc2cc(S(=O)(=O)O)ccc12
inactive: [18] 101 % of control | endpoint: mean survival time, dose: 100.0 mg/kg/injection, schedule: Q01DX009 (ip), vehicle: saline 101 % of control
